Legend:
[1] = Precipitating activity: rumen fluid containing manganese compound titrated with 1.0M Na2S, silver/sulfide electrode; design: species or system Holstein cows; settings: 200 mM MnO(II) in rumen fluid
Experimental: Next, 0.28 g of MnO(II) was placed in a 100 ml beaker and 20 ml of rumen fluid was added. Then 0.17 g of MnO2(IV) was placed in 100 ml beaker and 20 ml of rumen fluid was added. Each of these compositions, in addition to a rumen fluid control, was then titrated with a 1.0M solution of Na2S. The progress of the reaction was followed using the same silver/sulfide electrode set-up described above (Orion, Ion Plus Silver/Sulfide 9616BNWP).

[2] = Titration of approx. 200 mM sulfide in 24 hour old rumen fluid with 1 M MnCl2, BaCl2 or CaCl2, silver/sulfide electrode; design: species or system Holstein cows
Experimental: 24 hour old undiluted rumen fluid from rumen fistulated Holstein cows was obtained. 4 ml of Na2S in water (approximately 1 M) was added to 16 ml of the rumen fluid. The final concentration of sulfide ion in the rumen fluid was approximately 200 mM. […] The progress of the reaction was followed using the same silver/sulfide electrode set-up described above (Orion, Ion Plus Silver/Sulfide 9616BNWP).

Structure (SMILES): [O]=[Mn] [MnO(II)]
- mVolts ([1]; Vol 1M Na2S 0.0): 604.6 mVolts
- mVolts ([1]; Vol 1M Na2S 0.1): 674.0 mVolts
- mVolts ([1]; Vol 1M Na2S 0.2): 702.9 mVolts
- mVolts ([1]; Vol 1M Na2S 0.4): 724.5 mVolts
- mVolts ([1]; Vol 1M Na2S 0.5): 745.7 mVolts
- mVolts ([1]; Vol 1M Na2S 0.6): 760.6 mVolts
- mVolts ([1]; Vol 1M Na2S 0.7): 777.3 mVolts
- mVolts ([1]; Vol 1M Na2S 0.8): 789.8 mVolts
- mVolts ([1]; Vol 1M Na2S 0.9): 803.7 mVolts
- mVolts ([1]; Vol 1M Na2S 1.0): 803.9 mVolts
- mVolts ([1]; Vol 1M Na2S 1.1): 825.2 mVolts
- mVolts ([1]; Vol 1M Na2S 1.3): 833.7 mVolts
- mVolts ([1]; Vol 1M Na2S 1.4): 843.1 mVolts
- mVolts ([1]; Vol 1M Na2S 1.5): 848.0 mVolts
- mVolts ([1]; Vol 1M Na2S 1.6): 852.1 mVolts

Structure (SMILES): [Ba+2].[Cl-].[Cl-] [BaCl2]
- mVolts ([2]; Volume 0.0 of 1.0M BaCl2, ~200 mM sulfide): 942.6 mVolts
- mVolts ([2]; Volume 0.3 of 1.0M BaCl2, ~200 mM sulfide): 943.7 mVolts
- mVolts ([2]; Volume 0.4 of 1.0M BaCl2, ~200 mM sulfide): 943.3 mVolts
- mVolts ([2]; Volume 0.6 of 1.0M BaCl2, ~200 mM sulfide): 942.7 mVolts
- mVolts ([2]; Volume 0.8 of 1.0M BaCl2, ~200 mM sulfide): 941.3 mVolts
- mVolts ([2]; Volume 1.0 of 1.0M BaCl2, ~200 mM sulfide): 927.0 mVolts
- mVolts ([2]; Volume 1.2 of 1.0M BaCl2, ~200 mM sulfide): 925.6 mVolts
- mVolts ([2]; Volume 1.4 of 1.0M BaCl2, ~200 mM sulfide): 923.3 mVolts
- mVolts ([2]; Volume 1.6 of 1.0M BaCl2, ~200 mM sulfide): 922.5 mVolts
- mVolts ([2]; Volume 1.8 of 1.0M BaCl2, ~200 mM sulfide): 921.5 mVolts
- mVolts ([2]; Volume 2.0 of 1.0M BaCl2, ~200 mM sulfide): 920.9 mVolts
- mVolts ([2]; Volume 2.2 of 1.0M BaCl2, ~200 mM sulfide): 920.5 mVolts
- mVolts ([2]; Volume 2.4 of 1.0M BaCl2, ~200 mM sulfide): 920.0 mVolts
- mVolts ([2]; Volume 2.6 of 1.0M BaCl2, ~200 mM sulfide): 919.7 mVolts
- mVolts ([2]; Volume 2.8 of 1.0M BaCl2, ~200 mM sulfide): 918.8 mVolts
- mVolts ([2]; Volume 3.0 of 1.0M BaCl2, ~200 mM sulfide): 918.1 mVolts
- mVolts ([2]; Volume 3.2 of 1.0M BaCl2, ~200 mM sulfide): 917.7 mVolts
- mVolts ([2]; Volume 3.4 of 1.0M BaCl2, ~200 mM sulfide): 917.2 mVolts
- mVolts ([2]; Volume 3.6 of 1.0M BaCl2, ~200 mM sulfide): 916.7 mVolts
- mVolts ([2]; Volume 3.8 of 1.0M BaCl2, ~200 mM sulfide): 916.0 mVolts
- mVolts ([2]; Volume 4.0 of 1.0M BaCl2, ~200 mM sulfide): 915.6 mVolts
- mVolts ([2]; Volume 4.2 of 1.0M BaCl2, ~200 mM sulfide): 915.0 mVolts
- mVolts ([2]; Volume 4.4 of 1.0M BaCl2, ~200 mM sulfide): 914.8 mVolts
- mVolts ([2]; Volume 4.6 of 1.0M BaCl2, ~200 mM sulfide): 914.4 mVolts
- mVolts ([2]; Volume 4.8 of 1.0M BaCl2, ~200 mM sulfide): 913.9 mVolts
- mVolts ([2]; Volume 5.0 of 1.0M BaCl2, ~200 mM sulfide): 913.6 mVolts
- mVolts ([2]; Volume 5.2 of 1.0M BaCl2, ~200 mM sulfide): 913.0 mVolts
- mVolts ([2]; Volume 5.4 of 1.0M BaCl2, ~200 mM sulfide): 913.0 mVolts
- mVolts ([2]; Volume 5.6 of 1.0M BaCl2, ~200 mM sulfide): 912.7 mVolts
- mVolts ([2]; Volume 5.8 of 1.0M BaCl2, ~200 mM sulfide): 912.0 mVolts
- mVolts ([2]; Volume 6.0 of 1.0M BaCl2, ~200 mM sulfide): 911.7 mVolts
- mVolts ([2]; Volume 6.5 of 1.0M BaCl2, ~200 mM sulfide): 910.7 mVolts
- mVolts ([2]; Volume 7.0 of 1.0M BaCl2, ~200 mM sulfide): 910.8 mVolts
- mVolts ([2]; Volume 7.5 of 1.0M BaCl2, ~200 mM sulfide): 909.5 mVolts
- mVolts ([2]; Volume 8.0 of 1.0M BaCl2, ~200 mM sulfide): 908.3 mVolts
- mVolts ([2]; Volume 8.5 of 1.0M BaCl2, ~200 mM sulfide): 907.4 mVolts
- mVolts ([2]; Volume 9.0 of 1.0M BaCl2, ~200 mM sulfide): 906.8 mVolts
- mVolts ([2]; Volume 9.5 of 1.0M BaCl2, ~200 mM sulfide): 905.7 mVolts
- mVolts ([2]; Volume 10.0 of 1.0M BaCl2, ~200 mM sulfide): 905.0 mVolts

Structure (SMILES): [Ca+2].[Cl-].[Cl-] [CaCl2]
- mVolts ([2]; Volume 0.0 of 1.0M CaCl2, ~200 mM sulfide): 945.1 mVolts
- mVolts ([2]; Volume 0.1 of 1.0M CaCl2, ~200 mM sulfide): 939.8 mVolts
- mVolts ([2]; Volume 0.3 of 1.0M CaCl2, ~200 mM sulfide): 944.8 mVolts
- mVolts ([2]; Volume 0.5 of 1.0M CaCl2, ~200 mM sulfide): 931.6 mVolts
- mVolts ([2]; Volume 0.7 of 1.0M CaCl2, ~200 mM sulfide): 931.3 mVolts
- mVolts ([2]; Volume 0.9 of 1.0M CaCl2, ~200 mM sulfide): 931.2 mVolts
- mVolts ([2]; Volume 1.1 of 1.0M CaCl2, ~200 mM sulfide): 931.1 mVolts
- mVolts ([2]; Volume 1.4 of 1.0M CaCl2, ~200 mM sulfide): 930.7 mVolts
- mVolts ([2]; Volume 1.6 of 1.0M CaCl2, ~200 mM sulfide): 927.1 mVolts
- mVolts ([2]; Volume 1.8 of 1.0M CaCl2, ~200 mM sulfide): 925.7 mVolts
- mVolts ([2]; Volume 2.0 of 1.0M CaCl2, ~200 mM sulfide): 924.8 mVolts
- mVolts ([2]; Volume 2.2 of 1.0M CaCl2, ~200 mM sulfide): 923.8 mVolts
- mVolts ([2]; Volume 2.4 of 1.0M CaCl2, ~200 mM sulfide): 923.0 mVolts
- mVolts ([2]; Volume 2.6 of 1.0M CaCl2, ~200 mM sulfide): 921.0 mVolts
- mVolts ([2]; Volume 2.8 of 1.0M CaCl2, ~200 mM sulfide): 920.2 mVolts
- mVolts ([2]; Volume 3.0 of 1.0M CaCl2, ~200 mM sulfide): 917.5 mVolts
- mVolts ([2]; Volume 3.3 of 1.0M CaCl2, ~200 mM sulfide): 916.8 mVolts
- mVolts ([2]; Volume 3.4 of 1.0M CaCl2, ~200 mM sulfide): 915.6 mVolts
- mVolts ([2]; Volume 3.6 of 1.0M CaCl2, ~200 mM sulfide): 914.9 mVolts
- mVolts ([2]; Volume 3.8 of 1.0M CaCl2, ~200 mM sulfide): 914.3 mVolts
- mVolts ([2]; Volume 4.0 of 1.0M CaCl2, ~200 mM sulfide): 913.7 mVolts
- mVolts ([2]; Volume 4.2 of 1.0M CaCl2, ~200 mM sulfide): 913.1 mVolts
- mVolts ([2]; Volume 4.4 of 1.0M CaCl2, ~200 mM sulfide): 912.6 mVolts
- mVolts ([2]; Volume 4.6 of 1.0M CaCl2, ~200 mM sulfide): 912.1 mVolts
- mVolts ([2]; Volume 4.8 of 1.0M CaCl2, ~200 mM sulfide): 911.0 mVolts
- mVolts ([2]; Volume 5.0 of 1.0M CaCl2, ~200 mM sulfide): 910.1 mVolts
- mVolts ([2]; Volume 5.2 of 1.0M CaCl2, ~200 mM sulfide): 909.9 mVolts
- mVolts ([2]; Volume 5.4 of 1.0M CaCl2, ~200 mM sulfide): 909.5 mVolts
- mVolts ([2]; Volume 5.6 of 1.0M CaCl2, ~200 mM sulfide): 908.9 mVolts
- mVolts ([2]; Volume 5.8 of 1.0M CaCl2, ~200 mM sulfide): 908.5 mVolts
- mVolts ([2]; Volume 6.0 of 1.0M CaCl2, ~200 mM sulfide): 908.0 mVolts
- mVolts ([2]; Volume 6.5 of 1.0M CaCl2, ~200 mM sulfide): 906.7 mVolts
- mVolts ([2]; Volume 7.0 of 1.0M CaCl2, ~200 mM sulfide): 905.5 mVolts
- mVolts ([2]; Volume 7.5 of 1.0M CaCl2, ~200 mM sulfide): 904.5 mVolts
- mVolts ([2]; Volume 8.0 of 1.0M CaCl2, ~200 mM sulfide): 903.3 mVolts
- mVolts ([2]; Volume 8.5 of 1.0M CaCl2, ~200 mM sulfide): 902.3 mVolts
- mVolts ([2]; Volume 9.0 of 1.0M CaCl2, ~200 mM sulfide): 901.3 mVolts
- mVolts ([2]; Volume 9.5 of 1.0M CaCl2, ~200 mM sulfide): 900.3 mVolts
- mVolts ([2]; Volume 10.0 of 1.0M CaCl2, ~200 mM sulfide): 899.6 mVolts

— patent US9826761B2, “Compositions and methods for mitigating dietary sulfur in animals” (SarTec Corporation, priority 2008, dated 2017)
